Experimental data as given in patent publication US12139520B2 (priority 2020, dated 2024).
Bridge positions count the residues as written; N and C are the ends. Square brackets hold non-standard residues; d marks the D form. Peptide text beside a SMILES is read from it. Hyp = O=C(O)[C@@H]1C[C@@H](O)CN1; Cit = NC(=O)NCCC[C@H](N)C(=O)O

How the values were obtained:
hAMY3 receptor = biological target: T1, hAMY3 receptor (Homo sapiens, UniProt O60896+P30988); assay: cAMP assay for in vitro receptor activation, hAMY3-R; assay type: cell-based; settings: cAMP assay, hAMY3 receptor; read-out: hAMY3R EC50
T1 sequence (P30988 25-474): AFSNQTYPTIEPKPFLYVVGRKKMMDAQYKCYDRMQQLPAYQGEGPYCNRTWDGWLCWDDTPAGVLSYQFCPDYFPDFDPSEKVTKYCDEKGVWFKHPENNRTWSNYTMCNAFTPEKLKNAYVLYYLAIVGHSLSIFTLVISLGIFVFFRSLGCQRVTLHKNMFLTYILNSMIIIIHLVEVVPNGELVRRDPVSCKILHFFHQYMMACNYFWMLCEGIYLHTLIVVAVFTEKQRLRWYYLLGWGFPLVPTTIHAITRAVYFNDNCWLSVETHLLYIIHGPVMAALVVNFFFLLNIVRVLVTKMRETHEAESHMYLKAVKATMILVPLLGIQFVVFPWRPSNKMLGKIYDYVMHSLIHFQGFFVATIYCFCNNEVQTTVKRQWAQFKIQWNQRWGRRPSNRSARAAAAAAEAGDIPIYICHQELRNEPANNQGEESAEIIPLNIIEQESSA
T1 sequence (O60896 24-148 partner): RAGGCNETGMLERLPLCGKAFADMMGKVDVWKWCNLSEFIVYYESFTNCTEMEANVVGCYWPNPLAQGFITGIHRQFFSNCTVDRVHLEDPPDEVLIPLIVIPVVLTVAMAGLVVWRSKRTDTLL
In short: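 Accumulated cAMP was detected by time-resolved FRET one hour after reagent addition. Beforehand, hAMY3-R-overexpressing monoclonal cells (2000/well, DPBS, 0.05% casein, 0.5 mM IBMX) received graded doses of compound for 30 min at room temperature; human amylin served as positive control.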

[1] = Physical stability of peptide analogues (Thioflavin T fibrillation); assay type: physicochemical; settings: maximum ThT signal normalized between hAMY maximum and buffer background; 40° C., shaking, four days; pH 7 per table title
In short: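 ThT fluorescence (450 nm excitation, 480 nm emission; 4 μM dye) was read every 10 min over four days at 40° C under 700 rpm shaking stress, after 1 h in pH 4 acetate or pH 7 phosphate (50 mM). Peak smoothed signal expressed as percent, scaled between buffer background and hAMY maximum.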

| Compound | EC50 (hAMY3 receptor) | Max ThT signal (%) [1] |
| --- | --- | --- |
| CC[C@H](C)[C@H](NC(=O)[C@H](CCC(N)=O)NC(=O)[C@H](Cc1c[nH]cn1)NC(=O)[C@H](C)NC(=O)[C@H](CC(C)C)NC(=O)[C@H](CCCNC(N)=O)NC(=O)[C@H](CCC(N)=O)NC(=O)[C@@H](NC(=O)[C@@H](NC(=O)[C@@H]1CSSC[C@H](NC(=O)[C@@H](N)CCCCN)C(=O)N[C@@H](CC(N)=O)C(=O)N[C@@H]([C@@H](C)O)C(=O)N[C@@H](C)C(=O)N[C@@H]([C@@H](C)O)C(=O)N1)[C@@H](C)O)C(C)C)C(=O)N[C@@H](Cc1ccc(O)cc1)C(=O)N[C@@H](CCC(N)=O)C(=O)N[C@@H](Cc1ccccc1)C(=O)N[C@H](C(=O)N[C@@H](CC(=O)O)C(=O)N[C@@H](CCCCN)C(=O)N[C@@H](CC(=O)O)C(=O)N[C@@H](CCCCN)C(=O)N[C@@H](CC(=O)O)C(=O)N[C@@H](CC(N)=O)C(=O)N[C@H](C(=O)N[C@@H](C)C(=O)N1CCC[C@H]1C(=O)N[C@@H](CCCNC(=N)N)C(=O)N[C@H](C(=O)N[C@@H](CCCCN)C(=O)N[C@H](C(=O)NCC(=O)N[C@@H](CO)C(=O)N[C@@H](CC(N)=O)C(=O)NCC(=O)N1C[C@H](O)C[C@H]1C(N)=O)C(C)C)[C@@H](C)O)C(C)C)[C@@H](C)O [compound 248] (H-KCNTATCTVQ[Cit]LAHQIYQFTDKDKDNVAPRTKVGSNG[Hyp]-NH2; disulfide 2-7; N-terminus assumed) | 0.027 nM | 13.600% |
| CC[C@H](C)[C@H](NC(=O)[C@H](CCC(N)=O)NC(=O)[C@H](Cc1c[nH]cn1)NC(=O)[C@H](C)NC(=O)[C@H](CC(C)C)NC(=O)[C@H](CCCNC(N)=O)NC(=O)[C@H](CCC(N)=O)NC(=O)[C@@H](NC(=O)[C@@H](NC(=O)[C@@H]1CSSC[C@H](NC(=O)[C@@H](N)CCCCN)C(=O)N[C@@H](CC(N)=O)C(=O)N[C@@H]([C@@H](C)O)C(=O)N[C@@H](C)C(=O)N[C@@H]([C@@H](C)O)C(=O)N1)[C@@H](C)O)C(C)C)C(=O)N[C@@H](Cc1ccc(O)cc1)C(=O)N[C@@H](CCC(N)=O)C(=O)N[C@@H](Cc1ccccc1)C(=O)N[C@H](C(=O)N[C@@H](CC(=O)O)C(=O)N[C@@H](CCCCN)C(=O)N[C@@H](CC(=O)O)C(=O)N[C@@H](CCCCN)C(=O)N[C@@H](CC(=O)O)C(=O)N[C@@H](CC(N)=O)C(=O)N[C@H](C(=O)N[C@@H](C)C(=O)N1CCC[C@H]1C(=O)N[C@@H](CCCNC(=N)N)C(=O)N[C@H](C(=O)N[C@@H](CCCCN)C(=O)N[C@H](C(=O)NCC(=O)N[C@@H](CO)C(=O)N[C@@H](CC(N)=O)C(=O)NCC(=O)N[C@@H](Cc1ccc(O)cc1)C(N)=O)C(C)C)[C@@H](C)O)C(C)C)[C@@H](C)O [compound 257] (H-KCNTATCTVQ[Cit]LAHQIYQFTDKDKDNVAPRTKVGSNGY-NH2; disulfide 2-7; N-terminus assumed) | 0.016 nM | 20.950% |
| CC[C@H](C)[C@H](NC(=O)[C@H](CCC(N)=O)NC(=O)[C@H](Cc1c[nH]cn1)NC(=O)[C@H](C)NC(=O)[C@H](CC(C)C)NC(=O)[C@H](CCCNC(N)=O)NC(=O)[C@H](CCC(N)=O)NC(=O)[C@@H](NC(=O)[C@@H](NC(=O)[C@@H]1CSSC[C@H](NC(=O)CN)C(=O)N[C@@H](CCCNC(=N)N)C(=O)N[C@@H](Cc2ccccc2)C(=O)NCC(=O)N[C@@H]([C@@H](C)O)C(=O)N1)[C@@H](C)O)C(C)C)C(=O)N[C@@H](Cc1ccc(O)cc1)C(=O)N[C@@H](CCC(N)=O)C(=O)N[C@@H](Cc1ccccc1)C(=O)N[C@H](C(=O)N[C@@H](CC(=O)O)C(=O)N[C@@H](CCCCN)C(=O)N[C@@H](CC(=O)O)C(=O)N[C@@H](CCCCN)C(=O)N[C@@H](CC(=O)O)C(=O)N[C@@H](CC(N)=O)C(=O)N[C@H](C(=O)N[C@@H](C)C(=O)N1CCC[C@H]1C(=O)N[C@@H](CCCNC(=N)N)C(=O)N[C@H](C(=O)N[C@@H](CCCCN)C(=O)N[C@H](C(=O)NCC(=O)N1CCC[C@H]1C(=O)N[C@@H](CCC(N)=O)C(=O)NCC(=O)N1C[C@H](O)C[C@H]1C(N)=O)C(C)C)[C@@H](C)O)C(C)C)[C@@H](C)O [compound 259] (H-GCRFGTCTVQ[Cit]LAHQIYQFTDKDKDNVAPRTKVGPQG[Hyp]-NH2; disulfide 2-7) | 0.013 nM | 13.450% |
| CC[C@H](C)[C@H](NC(=O)[C@H](CC(N)=O)NC(=O)[C@@H](NC(=O)[C@H](CCCNC(=N)N)NC(=O)[C@@H]1CCCN1C(=O)[C@H](C)NC(=O)[C@@H](NC(=O)[C@H](CC(N)=O)NC(=O)[C@H](CC(=O)O)NC(=O)[C@H](CCCCN)NC(=O)[C@H](CC(=O)O)NC(=O)[C@H](CCCCN)NC(=O)[C@H](CC(=O)O)NC(=O)[C@@H](NC(=O)[C@H](Cc1ccccc1)NC(=O)[C@H](CCC(N)=O)NC(=O)[C@H](Cc1ccc(O)cc1)NC(=O)[C@@H](NC(=O)[C@H](CCC(N)=O)NC(=O)[C@H](Cc1c[nH]cn1)NC(=O)[C@H](C)NC(=O)[C@H](CC(C)C)NC(=O)[C@H](CCCNC(N)=O)NC(=O)[C@H](CCC(N)=O)NC(=O)[C@@H](NC(=O)[C@@H](NC(=O)[C@@H]1CSSC[C@H](NC(=O)CN)C(=O)N[C@@H](CCCNC(=N)N)C(=O)N[C@@H](Cc2ccccc2)C(=O)NCC(=O)N[C@@H]([C@@H](C)O)C(=O)N1)[C@@H](C)O)C(C)C)[C@@H](C)CC)[C@@H](C)O)C(C)C)[C@@H](C)O)C(=O)NCC(=O)N1CCC[C@H]1C(=O)N[C@@H](CCC(N)=O)C(=O)NCC(=O)N1C[C@H](O)C[C@H]1C(N)=O [compound 260] (H-GCRFGTCTVQ[Cit]LAHQIYQFTDKDKDNVAPRTNIGPQG[Hyp]-NH2; disulfide 2-7; N-terminus assumed) | 0.011 nM | 34.100% |
| CC(C)C[C@H](NC(=O)[C@H](CCCNC(N)=O)NC(=O)[C@H](CCC(N)=O)NC(=O)[C@@H](NC(=O)[C@@H](NC(=O)[C@@H]1CSSC[C@H](NC(=O)CN)C(=O)N[C@@H](CCCNC(=N)N)C(=O)N[C@@H](Cc2ccccc2)C(=O)NCC(=O)N[C@@H]([C@@H](C)O)C(=O)N1)[C@@H](C)O)C(C)C)C(=O)N[C@@H](C)C(=O)N[C@@H](Cc1c[nH]cn1)C(=O)N[C@@H](Cc1ccccc1)C(=O)N[C@@H](CC(C)C)C(=O)N[C@@H](Cc1ccc(O)cc1)C(=O)N[C@@H](CCC(N)=O)C(=O)N[C@@H](Cc1ccccc1)C(=O)N[C@H](C(=O)N[C@@H](CC(=O)O)C(=O)N[C@@H](CCCCN)C(=O)N[C@@H](CC(=O)O)C(=O)N[C@@H](CCCCN)C(=O)N[C@@H](CC(=O)O)C(=O)N[C@@H](CC(N)=O)C(=O)N[C@H](C(=O)N[C@@H](C)C(=O)N1CCC[C@H]1C(=O)N[C@@H](CCCNC(=N)N)C(=O)N[C@H](C(=O)N[C@@H](CC(N)=O)C(=O)N[C@H](C(=O)NCC(=O)N1CCC[C@H]1C(=O)N[C@@H](CCC(N)=O)C(=O)NCC(=O)N[C@@H](Cc1ccc(O)cc1)C(N)=O)C(C)C)[C@@H](C)O)C(C)C)[C@@H](C)O [compound 263] (H-GCRFGTCTVQ[Cit]LAHFLYQFTDKDKDNVAPRTNVGPQGY-NH2; disulfide 2-7; N-terminus assumed) | 0.005 nM | 1.050% |
| CC(C)C[C@H](NC(=O)[C@H](CCCNC(N)=O)NC(=O)[C@H](CCC(N)=O)NC(=O)[C@@H](NC(=O)[C@@H](NC(=O)[C@@H]1CSSC[C@H](NC(=O)CN)C(=O)N[C@@H](CCCNC(=N)N)C(=O)N[C@@H](Cc2ccccc2)C(=O)NCC(=O)N[C@@H]([C@@H](C)O)C(=O)N1)[C@@H](C)O)C(C)C)C(=O)N[C@@H](C)C(=O)N[C@@H](Cc1c[nH]cn1)C(=O)N[C@@H](Cc1ccccc1)C(=O)N[C@@H](CC(C)C)C(=O)N[C@@H](Cc1ccc(O)cc1)C(=O)N[C@@H](CCC(N)=O)C(=O)N[C@@H](Cc1ccccc1)C(=O)N[C@H](C(=O)N[C@@H](CC(=O)O)C(=O)N[C@@H](CCCCN)C(=O)N[C@@H](CC(=O)O)C(=O)N[C@@H](CCCCN)C(=O)N[C@@H](CC(=O)O)C(=O)N[C@@H](CC(N)=O)C(=O)N[C@H](C(=O)N[C@@H](C)C(=O)N1CCC[C@H]1C(=O)N[C@@H](CCCNC(=N)N)C(=O)N[C@H](C(=O)N[C@@H](CC(N)=O)C(=O)N[C@H](C(=O)NCC(=O)N[C@@H](CO)C(=O)N[C@@H](CC(N)=O)C(=O)N[C@H](C(=O)N[C@@H](Cc1ccc(O)cc1)C(N)=O)[C@@H](C)O)C(C)C)[C@@H](C)O)C(C)C)[C@@H](C)O [compound 264] (H-GCRFGTCTVQ[Cit]LAHFLYQFTDKDKDNVAPRTNVGSNTY-NH2; disulfide 2-7) | 0.006 nM | 1.350% |
